Experimental findings from the supplement of paper PMC10307832 are described below.

Test in all cases: relative viability (nuclei count vs DMSO), 5 days (fraction); higher = more cells survive
Compound in the assay “Ibrutinib + Navitoclax”: C=CC(=O)N1CCC[C@@H](n2nc(-c3ccc(Oc4ccccc4)cc3)c3c(N)ncnc32)C1 [Ibrutinib] + CC1(C)CCC(c2ccc(Cl)cc2)=C(CN2CCN(c3ccc(C(=O)NS(=O)(=O)c4ccc(N[C@H](CCN5CCOCC5)CSc5ccccc5)c(S(=O)(=O)C(F)(F)F)c4)cc3)CC2)C1 [Navitoclax] (partner 0.5 µM)
The method in brief: (§1)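 Lung cancer cell lines were seeded in 1536-well plates and dosed by pin tool the next day, with either a single drug or a fixed anchor-drug dose combined with five library-drug doses (not always all listed) spaced in √10 steps. Five days later, one step fixed the cells and stained their nuclei (final 0.05% Triton X-100, 1% formaldehyde, 1 ug/ml Hoechst), and nuclei were counted on 4× images. Relative viability is the nuclei count in treated wells divided by the count in vehicle wells, and each value is the median of duplicate plates.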

Compound in the assay “Ibrutinib + Vorinostat”: C=CC(=O)N1CCC[C@@H](n2nc(-c3ccc(Oc4ccccc4)cc3)c3c(N)ncnc32)C1 [Ibrutinib] + O=C(CCCCCCC(=O)Nc1ccccc1)NO [Vorinostat] (partner 1 µM)
The method in brief: as §1

Compound in the assay “BMX-IN-1 + Bortezomib”: C=CC(=O)Nc1cc(-n2c(=O)ccc3cnc4ccc(-c5ccc(NS(C)(=O)=O)cc5)cc4c32)ccc1C [BMX-IN-1] + CC(C)C[C@H](NC(=O)[C@H](Cc1ccccc1)NC(=O)c1cnccn1)B(O)O [Bortezomib] (partner 0.002 µM)
The method in brief:
as §1

Compound in the assay “BMX-IN-1 + Alpelisib”: C=CC(=O)Nc1cc(-n2c(=O)ccc3cnc4ccc(-c5ccc(NS(C)(=O)=O)cc5)cc4c32)ccc1C [BMX-IN-1] + Cc1nc(NC(=O)N2CCC[C@H]2C(N)=O)sc1-c1ccnc(C(C)(C)C(F)(F)F)c1 [Alpelisib] (partner 2 µM)
Put shortly: as §1

Turning to NCI-H2087, the relative viability with Ibrutinib + Navitoclax (first compound 0.005 µM) stood at 1.05; with Ibrutinib + Navitoclax (first compound 0.01581 µM), 0.952; with Ibrutinib + Navitoclax (first compound 0.05 µM), 1.12; in the assay with Ibrutinib + Navitoclax (first compound 0.1581 µM), 1; in the assay with Ibrutinib + Navitoclax (first compound 0.5 µM) it was 0.939; in the assay with Ibrutinib + Vorinostat (first compound 0.005 µM), 0.97. Also, the relative viability with Ibrutinib + Vorinostat (first compound 0.01581 µM) was 0.745; with Ibrutinib + Vorinostat (first compound 0.05 µM) it was 0.385; with Ibrutinib + Vorinostat (first compound 0.5 µM) it was 0.538; with BMX-IN-1 + Bortezomib (first compound 0.02 µM), 1.09; with BMX-IN-1 + Bortezomib (first compound 0.2 µM), 0.959; with BMX-IN-1 + Bortezomib (first compound 0.6325 µM), 1.07. Besides, the relative viability was 0.814 with BMX-IN-1 + Bortezomib (first compound 2 µM); 1.12 with BMX-IN-1 + Alpelisib (first compound 0.02 µM); 1.28 with BMX-IN-1 + Alpelisib (first compound 0.2 µM); 1.32 with BMX-IN-1 + Alpelisib (first compound 0.6325 µM); 1.24 with BMX-IN-1 + Alpelisib (first compound 2 µM).

For COR-L 105, the relative viability with Ibrutinib + Navitoclax (first compound 0.005 µM) was determined as 0.548; with Ibrutinib + Navitoclax (first compound 0.01581 µM) it was 0.74; in the assay with Ibrutinib + Navitoclax (first compound 0.05 µM), 0.625; in the assay with Ibrutinib + Navitoclax (first compound 0.1581 µM) it was 0.681; with Ibrutinib + Navitoclax (first compound 0.5 µM) it was 0.385; in the assay with Ibrutinib + Vorinostat (first compound 0.005 µM), 0.709. Moreover, the relative viability with Ibrutinib + Vorinostat (first compound 0.01581 µM) came to 0.659; in the assay with Ibrutinib + Vorinostat (first compound 0.05 µM) it was 0.526; with Ibrutinib + Vorinostat (first compound 0.1581 µM), 0.833; with Ibrutinib + Vorinostat (first compound 0.5 µM), 0.388; with BMX-IN-1 + Bortezomib (first compound 0.02 µM), 0.965; in the assay with BMX-IN-1 + Bortezomib (first compound 0.2 µM), 0.697. The relative viability with BMX-IN-1 + Bortezomib (first compound 0.6325 µM) turned out to be 1.03; with BMX-IN-1 + Bortezomib (first compound 2 µM), 0.659; with BMX-IN-1 + Alpelisib (first compound 0.02 µM), 1.33; with BMX-IN-1 + Alpelisib (first compound 0.2 µM), 1.05; with BMX-IN-1 + Alpelisib (first compound 0.6325 µM), 1.11; in the assay with BMX-IN-1 + Alpelisib (first compound 2 µM), 0.886.

With EKVX, the relative viability worked out at 0.868 with Ibrutinib + Navitoclax (first compound 0.005 µM); 0.96 with Ibrutinib + Navitoclax (first compound 0.01581 µM); 0.915 with Ibrutinib + Navitoclax (first compound 0.05 µM); 0.806 with Ibrutinib + Navitoclax (first compound 0.1581 µM); 0.485 with Ibrutinib + Navitoclax (first compound 0.5 µM); 0.811 in the assay with Ibrutinib + Vorinostat (first compound 0.005 µM). Moreover, the relative viability with Ibrutinib + Vorinostat (first compound 0.01581 µM) is 0.549; with Ibrutinib + Vorinostat (first compound 0.05 µM), 0.633; with Ibrutinib + Vorinostat (first compound 0.1581 µM), 0.657; with Ibrutinib + Vorinostat (first compound 0.5 µM) it was 0.365; with BMX-IN-1 + Bortezomib (first compound 0.02 µM), 1.42; in the assay with BMX-IN-1 + Bortezomib (first compound 0.2 µM) it was 1.23. Besides, the relative viability with BMX-IN-1 + Bortezomib (first compound 0.6325 µM) is 1.11; in the assay with BMX-IN-1 + Bortezomib (first compound 2 µM), 1.19; with BMX-IN-1 + Alpelisib (first compound 0.02 µM) it was 0.942; with BMX-IN-1 + Alpelisib (first compound 0.2 µM), 0.965; in the assay with BMX-IN-1 + Alpelisib (first compound 0.6325 µM) it was 0.951; with BMX-IN-1 + Alpelisib (first compound 2 µM) it was 0.828.

In the case of NCI-H23, the relative viability with Ibrutinib + Navitoclax (first compound 0.005 µM) is 0.853; with Ibrutinib + Navitoclax (first compound 0.01581 µM), 0.886; in the assay with Ibrutinib + Navitoclax (first compound 0.05 µM), 0.771; with Ibrutinib + Navitoclax (first compound 0.1581 µM) it was 0.787; in the assay with Ibrutinib + Navitoclax (first compound 0.5 µM), 0.97; in the assay with Ibrutinib + Vorinostat (first compound 0.005 µM), 0.467. The relative viability with Ibrutinib + Vorinostat (first compound 0.01581 µM) is 0.527; in the assay with Ibrutinib + Vorinostat (first compound 0.05 µM), 0.514; with Ibrutinib + Vorinostat (first compound 0.1581 µM), 0.605; in the assay with Ibrutinib + Vorinostat (first compound 0.5 µM), 0.594; with BMX-IN-1 + Bortezomib (first compound 0.02 µM), 1.23; with BMX-IN-1 + Bortezomib (first compound 0.2 µM) it was 1.46. In addition, the relative viability with BMX-IN-1 + Bortezomib (first compound 0.6325 µM) was found to be 1.18; with BMX-IN-1 + Bortezomib (first compound 2 µM), 1.06; with BMX-IN-1 + Alpelisib (first compound 0.02 µM), 0.617; with BMX-IN-1 + Alpelisib (first compound 0.2 µM), 0.793; with BMX-IN-1 + Alpelisib (first compound 0.6325 µM) it was 0.603; with BMX-IN-1 + Alpelisib (first compound 2 µM), 0.692.

Take NCI-H3122: the relative viability with Ibrutinib + Navitoclax (first compound 0.005 µM) came to 1.06; with Ibrutinib + Navitoclax (first compound 0.01581 µM), 0.971; in the assay with Ibrutinib + Navitoclax (first compound 0.05 µM) it was 1.06; in the assay with Ibrutinib + Navitoclax (first compound 0.1581 µM), 0.956; with Ibrutinib + Navitoclax (first compound 0.5 µM) it was 1.06; with Ibrutinib + Vorinostat (first compound 0.005 µM), 1.05. The relative viability amounted to 0.944 with Ibrutinib + Vorinostat (first compound 0.01581 µM); 0.874 with Ibrutinib + Vorinostat (first compound 0.05 µM); 0.858 with Ibrutinib + Vorinostat (first compound 0.1581 µM); 1.06 with Ibrutinib + Vorinostat (first compound 0.5 µM); 1.04 with BMX-IN-1 + Bortezomib (first compound 0.02 µM); 0.974 in the assay with BMX-IN-1 + Bortezomib (first compound 0.2 µM). In addition, the relative viability with BMX-IN-1 + Bortezomib (first compound 0.6325 µM) came to 1.05; in the assay with BMX-IN-1 + Bortezomib (first compound 2 µM), 0.994; in the assay with BMX-IN-1 + Alpelisib (first compound 0.02 µM), 0.815; with BMX-IN-1 + Alpelisib (first compound 0.2 µM) it was 0.879; with BMX-IN-1 + Alpelisib (first compound 0.6325 µM) it was 0.657; with BMX-IN-1 + Alpelisib (first compound 2 µM) it was 0.812.
